Results on 32 compounds are retold here after patent US20230174488A1 (priority 2020, published 2023).

One experiment has as its target SARS-CoV-2 M^PRO (Severe acute respiratory syndrome coronavirus 2, UniProt P0DTD1). The experiment is described as follows: biochemical. The format is biochemical.
A further experiment has as its system SARS-CoV-2. Kind of experiment: In vitro antiviral cell-based assay (live SARS-CoV-2 IFA) in Vero cells. The following applies: Severe acute respiratory syndrome coronavirus 2, MOI ~0.0125, 24 hpi.
Setting [1] is: In vitro potency data, 30 min pre-incubation, 25 nM M^pro, 25 µM substrate, read-out: IC50.

Like-named read-outs stand apart in the source and are kept apart here.

For `O=C(NC1CCC(F)(F)CC1)C(c1cncnc1)N(C(=O)CCl)c1ccc(-c2cncs2)cc1` (single isomer, unassigned) [2-Chloro-N-(2-((4,4-difluorocyclohexyl)amino)-2-oxo-1-(pyrimidin-5-yl)ethyl)-N-(4-(thiazol-5-yl)phenyl)acetamide], the IC50 at SARS-CoV-2 M^PRO (setting [1]) was 50 nM; against SARS-CoV-2 M^PRO (SARS-CoV-2 M^pro IC50′ nM, General summary table), 50 nM. Further, it took 11.4 µM to reach a half-maximal effect with SARS-CoV-2 (EC50).

On to `O=C(NC1CCC(F)(F)CC1)C(c1cncnc1)N(C(=O)CCl)c1ccc(-c2ccno2)cc1` (single isomer, unassigned) [INSCoV-600J(1), 2-Chloro-N-(2-((4,4-difluorocyclohexyl)amino)-2-oxo-1-(pyrimidin-5-yl)ethyl)-N-(4-(isoxazol-5-yl)phenyl)acetamide], for which the IC50 at SARS-CoV-2 M^PRO (setting [1]) was determined as 63 nM. The EC50 in the experiment with SARS-CoV-2 was found to be 14.2 µM.

Take `O=C(NC1CCC(F)(F)CC1)[C@@H](c1cncnc1)N(C(=O)[C@@H](F)Cl)c1ccc(-c2ccno2)cc1` (single isomer, unassigned) [INSCoV-614A(2A), 2-Chloro-N-(2-((4,4-difluorocyclohexyl)amino)-2-oxo-1-(pyrimidin-5-yl)ethyl)-2-fluoro-N-(4-(isoxazol-5-yl)phenyl)acetamide]: the IC50 at SARS-CoV-2 M^PRO (setting [1]) was 180 nM. For the same compound, the response in the experiment with SARS-CoV-2 was half-maximal at 4.25 µM (EC50).

Consider `CCN(CC)CCCC(C)Nc1ccnc2cc(Cl)ccc12` (stereo not drawn) [Chloroquine, chloroquine, reference compound], for which, in the experiment with SARS-CoV-2, a half-maximal effect (EC50) was put at 7.35 µM.

On to `N#Cc1cc(OC(F)(F)F)ccc1N(C(=O)CCl)C(C(=O)NC1CCC(F)(F)CC1)c1cncnc1` (stereo not drawn) [INSCoV-517A, 2-chloro-N-(2-cyano-4-(trifluoromethoxy)phenyl)-N-(2-((4,4-difluorocyclohexyl)amino)-2-oxo-1-(pyrimidin-5-yl)ethyl)acetamide], for which the IC50 on SARS-CoV-2 M^PRO (setting [1]) came out at 90 nM. This compound also showed an EC50 with SARS-CoV-2 of 11.1 µM.

For `O=C(NC1CCC(F)(F)CC1)C(c1cncnc1)N(C(=O)CCl)c1ccc(-c2cncs2)cc1` (stereo not drawn) [INSCoV-600K, 2-Chloro-N-(2-((4,4-difluorocyclohexyl)amino)-2-oxo-1-(pyrimidin-5-yl)ethyl)-N-(4-(thiazol-5-yl)phenyl)acetamide], the IC50 at SARS-CoV-2 M^PRO (setting [1]) came out at 78 nM. In addition, the response in the experiment on SARS-CoV-2 was half-maximal at 14.5 µM (EC50).

As for `O=C(NC1CCC(F)(F)CC1)C(c1cncnc1)N(C(=O)[C@H]1CO1)c1ccc(-c2cnco2)cc1` (stereo partly drawn) [INSCoV-600R(1)], the IC50 on SARS-CoV-2 M^PRO (setting [1]) was determined as 19900 nM.

Turning to `O=C(NC1CCC(F)(F)CC1)[C@H](c1cncnc1)N(C(=O)[C@H]1CO1)c1ccc(-c2cnco2)cc1` [INSCoV-600R(1A)], the IC50 on SARS-CoV-2 M^PRO (setting [1]) is above 25000 nM.

`O=C(NC1CCC(F)(F)CC1)C(c1cncnc1)N(C(=O)[C@@H]1CO1)c1ccc(-c2cnco2)cc1` (stereo partly drawn) [INSCoV-600R(2)]: on SARS-CoV-2 M^PRO (setting [1]), the IC50 turned out to be 6450 nM.

Take `O=C(NC1CCC(F)(F)CC1)[C@@H](c1cncnc1)N(C(=O)[C@@H]1CO1)c1ccc(-c2cnco2)cc1` [INSCoV-600R(2B)]: at SARS-CoV-2 M^PRO (setting [1]), the IC50 was above 25000 nM.

With `O=C(NC1CCC(F)(F)CC1)C(c1cncnc1)N(C(=O)C1CO1)c1ccc(-c2cnco2)cc1` (stereo not drawn) [INSCoV-600R], at SARS-CoV-2 M^PRO (setting [1]), the IC50 is 12800 nM.

For `Cc1cc(-c2cccnc2)cc(F)c1NC(=O)C(c1cncnc1)N(C(=O)CCl)c1ccc(-c2cnco2)cc1` (stereo not drawn) [INSCoV-600X], the IC50 on SARS-CoV-2 M^PRO (setting [1]) turned out to be 1390 nM.

`O=C(NC1CCC(F)(F)CC1)C(c1cncnc1)N(C(=O)C1CO1)c1ccc(-c2ccno2)cc1` (stereo not drawn) [INSCoV-600Y, N-(2-((4,4-Difluorocyclohexyl)Amino)-2-Oxo-1-(Pyrimidin-5-yl)Ethyl)-N-(4-(Isoxazol-5-yl)Phenyl)Oxirane-2-Carboxamide]: the IC50 on SARS-CoV-2 M^PRO (setting [1]) turned out to be 1990 nM.

Regarding `CN(C)C(=O)C1CCCC(NC(=O)C(c2cncnc2)N(C(=O)CCl)c2ccc(-c3cnco3)cc2)C1` (stereo not drawn) [INSCoV-601CA], the IC50 at SARS-CoV-2 M^PRO (setting [1]) was determined as 1150 nM.

In the case of `O=C(NC1CCC(F)(F)CC1)C(c1ccnnc1)N(C(=O)CCl)c1ccc(-c2cncs2)cc1` (stereo not drawn) [INSCoV-601F, 2-Chloro-N-(2-((4,4-Difluorocyclohexyl)Amino)-2-Oxo-1-(Pvridazin-4-vl)Ethyl)-N-(4-(Thiazol-5-vl)Phenyl)Acetamide], the concentration for half-maximal inhibition (IC50) on SARS-CoV-2 M^PRO (setting [1]) was 130 nM.

Consider `O=C(NC1CCC(F)(F)CC1)C(c1cnccn1)N(C(=O)CCl)c1ccc(-c2cncs2)cc1` (stereo not drawn) [INSCoV-601G, 2-Chloro-N-(2-((4,4-difluorocyclohexyl)amino)-2-oxo-1-(pyrazin-2-yl)ethyl)-N-(4-(thiazol-5-yl)phenyl)acetamide], for which the IC50 at SARS-CoV-2 M^PRO (setting [1]) came out at 80 nM. This compound also returned an EC50 in the experiment on SARS-CoV-2 of 10.2 µM.

For the compound `O=C(NC1CCC(F)(F)CC1)[C@H](c1ccnnc1)N(C(=O)CCl)c1ccc(-c2ccns2)cc1` [INSCoV-601J(2)], the IC50 on SARS-CoV-2 M^PRO (setting [1]) stood at 530 nM.

Regarding `O=C(NC1CCC(F)(F)CC1)[C@@H](c1cncnc1)N(C(=O)CCl)c1ccc(-c2ccccc2)cc1` [INSCoV-601L], the IC50 at SARS-CoV-2 M^PRO (setting [1]) stood at 300 nM.

For the compound `CC(=O)c1ccc(NC(=O)[C@@H](c2cnccn2)N(C(=O)CCl)c2ccc(-c3ccns3)cc2)[nH]1` [INSCoV-601M], the IC50 at SARS-CoV-2 M^PRO (setting [1]) was 1150 nM.

On to `CC(C)c1cc(F)c(NC(=O)[C@@H](c2cncnc2)N(C(=O)CCl)c2ccc(-c3ccns3)cc2)c(F)c1` [INSCoV-601O], for which the IC50 at SARS-CoV-2 M^PRO (setting [1]) worked out at 3060 nM.

Take `CC(C(=O)NC1CCC(F)(F)CC1)(c1cncnc1)N(C(=O)CCl)c1ccc(-c2ccno2)cc1` (stereo not drawn) [INSCoV-601P, 2-(2-Chloro-N-(4-(isoxazol-5-yl)phenyl)acetamido)-N-(4,4-difluorocyclohexyl)-2-(pyrimidin-5-yl)propanamide]: at SARS-CoV-2 M^PRO (setting [1]), the IC50 amounted to 380 nM.

Consider `O=C(NC1CCOC1)[C@H](c1cncnc1)N(C(=O)CCl)c1ccc(-c2cncs2)cc1` (stereo partly drawn) [INSCoV-601R(1A)], for which the IC50 on SARS-CoV-2 M^PRO (In vitro potency data, 30 min pre-incubation, 25 nM M^pro, 25 µM substrate, listed as INSCoV-601R(lA), read-out: IC50) came out at 140 nM.

As for `O=C(NC1CCOC1)[C@H](c1cncnc1)N(C(=O)CCl)c1ccc(-c2cncs2)cc1` (stereo partly drawn) [INSCoV-601R(1B)], the IC50 on SARS-CoV-2 M^PRO (In vitro potency data, 30 min pre-incubation, 25 nM M^pro, 25 µM substrate, listed as INSCoV-601R(lB), read-out: IC50) came to 440 nM.

Regarding `O=C(NC1CCOC1)[C@H](c1cncnc1)N(C(=O)CCl)c1ccc(-c2cncs2)cc1` (stereo partly drawn) [INSCoV-601R], the half-inhibitory concentration (IC50) at SARS-CoV-2 M^PRO (setting [1]) came to 120 nM.

Turning to `O=C(NC1CCC(F)(F)C1)C(c1cncnc1)N(C(=O)CCl)c1ccc(-c2cncs2)cc1` (stereo not drawn) [INSCoV-601S], on SARS-CoV-2 M^PRO (setting [1]), the IC50 was 90 nM.

In the case of `COC(=O)c1ccc(NC(=O)[C@H](c2cncnc2)N(C(=O)CCl)c2ccc(-c3cncs3)cc2)[nH]1` [INSCoV-601T], at SARS-CoV-2 M^PRO (setting [1]), the IC50 turned out to be 170 nM.

Consider `N#CCC(=O)N(c1ccc(-c2cncs2)cc1)[C@H](C(=O)NC1CCC(F)(F)CC1)c1cncnc1` [INSCoV-612], for which the IC50 on SARS-CoV-2 M^PRO (setting [1]) came out at 23200 nM.

In the case of `O=C(NC1CCC(F)(F)CC1)C(c1cncnc1)N(C(=O)C(F)Cl)c1ccc(-c2cncs2)cc1` (stereo not drawn) [INSCoV-614, 2-Chloro-N-(2-((4,4-difluorocyclohexyl)amino)-2-oxo-1-(pyrimidin-5-yl)ethyl)-2-fluoro-N-(4-(thiazol-5-yl)phenyl)acetamide], the IC50 at SARS-CoV-2 M^PRO (setting [1]) was found to be 330 nM.

As for `O=C(NC1CCC(F)(F)CC1)C(c1cncnc1)N(C(=O)CF)c1ccc(-c2cncs2)cc1` (stereo not drawn) [INSCoV-615], the IC50 on SARS-CoV-2 M^PRO (setting [1]) turned out to be 11400 nM.

Consider `C=C(F)C(=O)N(c1ccc(-c2cncs2)cc1)C(C(=O)NC1CCC(F)(F)CC1)c1cncnc1` (stereo not drawn) [INSCoV-616], for which the IC50 on SARS-CoV-2 M^PRO (setting [1]) stood at 8360 nM.

`CC1(C)OCc2cc(N(C(=O)CCl)C(C(=O)Nc3cncc4ccccc34)c3ccno3)cnc21` (stereo not drawn) [INSCoV-704]: the IC50 at SARS-CoV-2 M^PRO (setting [1]) was determined as 19400 nM.

For `CNC(=O)c1cc(C)c(NC(=O)C(c2cncnc2)N(C(=O)CCl)c2ccc(-c3cnco3)cc2)c(Cl)c1` (stereo not drawn) [INSCoV-6000, 3-chloro-4-[[2-(N-(2-chloroacetyl)-4-oxazol-5-yl-anilino)-2-pyrimidin-5-yl-acetyl]amino]-N,5-dimethyl-benzamide], on SARS-CoV-2 M^PRO (setting [1]), the IC50 was 1090 nM.
